From US20230372335A1, “TREATMENT OF COGNITIVE IMPAIRMENT WITH A CNS-PENETRANT sGC STIMULATOR” (Cyclerion Therapeutics, Inc., priority 2020, published 2023)
“Also recorded” adds a separate entry of the source.

Columns and labels:
[1] = CSF concentration of study drug (pharmacokinetics), NCT04240158; type: in vivo, human
Method: (§1) One dosage regimen was studied in this clinical trial. For subjects receiving IW-6463 during the given dosing period, IW-6463 tablets were administered orally at a 15-mg total once-daily dose for. For subjects receiving placebo during the given dosing period, placebo tablets to match IW-6463 tablets were used. For Cohort 1, the 15 mg total oral daily dose was selected based on emerging data from the Phase 1 study NCT03856827, pre-clinical qEEG results, as well as multispecies PK parameters. For Cohort 2, in addition to the those data. the emerging data from Cohort 1 of this study supported selection of the 15 mg total oral daily dose.
The PK analysis population is defined as all participants who were randomized, received at least 1 dose of study drug, and have at least 1 measurable drug concentration of Compound 1 in collected samples.

[2] = test system: healthy subjects aged 18 to 62; test: EEG in Phase I clinical trial NCT03856827; type: in vivo, human
Source text: Nonclinical pharmacology and toxicology data supported conducting clinical studies of Compound Ito assess its safety, tolerability, pharmacokinetic (PK), and pharmacodynamics (PD) in humans. In a Phase I clinical trial (NCT03856827) changes were also observed in the brains of healthy subjects aged 18 to 62 by EEG.

[3] = test system: CSF neuroinflammatory markers; test: Exploratory CSF biomarker analysis, NCT04240158; type: in vivo, human; conditions: after two weeks of treatment
Source text: Biomarkers measured in the CSF included: neurofilament light chain (NF-L) and cGMP. Other biomarkers measured in CSF include A2M, C3, TIMP1, PAI1 MCP1, PARC (CCL18), MMP3 and TNFR2.

rodents = conditions: pre-clinical models; cited from earlier work
[4] = Plasma and CSF concentrations in NCT03856827 trial; type: in vivo, human; conditions: total oral daily dose of 10 mg
[5] = test system: healthy elderly participants; test: N200 (MMN) auditory event-related potential by EEG, NCT04240158; type: in vivo, human; conditions: for ERP N200 amplitude: vs placebo or pre-treatment (FIG. 3); for N200 latency response vs age: subjects older than 70 vs 65-69 years old (FIG. 4, FIG. 8)
Method: In P300 and N200 ERP studies, participants were seated wearing the EEG cap and headphones and were instructed to sit still and relax. During the task, participants were presented with auditory tones. Participants were instructed to pay attention to the tones and press a response-button when they heard an infrequent/deviant tone. A total of 500 tones were presented over […], of which 400 were presented as frequent stimuli and 100 as deviant/infrequent stimuli. […] The first 5 trials were frequent tones and there were at least 2 frequent tones between 2 deviant/infrequent tones. The frequent and infrequent tones were 150 ms tones of 500 Hz and 1000 Hz at a sound pressure level of 75 dB, respectively. All tones has a 5 ms rise and fall time. Tones were presented at a fixed rate of 1 Hz.
(§2) This single-center double-blind, randomized, placebo-controlled, two-way, cross-over study evaluated a single dose level of IW-6463 compared to placebo. Subjects (male and female) were enrolled into 2 pre-defined, staggered cohorts (Cohort 1 and Cohort 2). The dose selected for both cohorts was the same but the start of enrollment within each cohort was different. This was based upon the availability of preliminary data from the previously started Phase 1 study NCT03856827 in healthy subjects and the emerging safety profile for that study from which a potential different second dose was being considered, but finally was not selected.
as §1

[6] = test system: healthy elderly participants; test: Saccadic eye movements (SEM), NeuroCart, NCT04240158; type: in vivo, human; conditions: 15 mg oral once daily
Method: In this trial, SEMs were recorded at different times. Recording and analysis of SEMs were conducted with a microcomputer-based system for sampling and analysis of eye movements. The program for signal collection and the AD-converter was from Cambridge Electronic Design (CED Ltd., Cambridge, UK), the amplification by Grass (Grass-Telefactor, An Astro-Med, Inc. Product Group, Braintree, MA, USA) and the sampling and analysis scripts were developed at the CHDR (Leiden, the Netherlands). Disposable silver-silver chloride electrodes (Ambu Blue Sensor N) were applied on the forehead and beside the lateral canthi of both eyes of the participant for registration of the electro-oculographic signals. Skin resistance was reduced to less than 5 kOhm before measurements. […] SEMs were recorded for stimulus amplitudes of approximately 15 degrees to either side. Fifteen saccades were recorded with interstimulus intervals varying randomly between 3 and 6 seconds. […] Saccadic inaccuracy was calculated as the absolute value of the difference between the stimulus angle and the corresponding saccade, expressed as a percentage of the stimulus angle. SEMs were recorded in a training session at screening and during each Neurocart session (on day 1 and 15 of each treatment period at 2 hours pre-dose; on day 15 of each treatment period at 2, 3, and 6 hours post-dose). […]

[7] = test system: healthy elderly participants; test: Safety and tolerability (adverse events, blood pressure), NCT04240158; type: in vivo, human
Method: Evaluations of systolic and diastolic blood pressure, pulse rate, respiratory rate, and temperature were performed throughout the study. Pulse and blood pressure were taken after the participant had rested quietly for 5 minutes in supine position. Automated oscillometric blood pressures and pulse rate were measured using a Dash 3000, Dash 4000, Dynamap 400, or Dynamap ProCare 400.
as §1
The safety population is defined as all participants who were randomized and received at least 1 dose of study drug.

pre-clinical models = conditions: cited from earlier work
rats = conditions: cited from earlier work
[8] = test system: healthy elderly participants; test: Resting-state EEG power spectra, healthy elderly study NCT04240158; type: in vivo, human
Method: Resting-state EEG recordings with open and closed eyes for 5 min in each eye state were performed. Each recording employed alternating periods with eyes open and closed with a duration of 64-seconds for each period. Participants faced a featureless wall and were instructed not to stare, not to move their head and eyes, and to suppress eye blinks.
An EEG cap with electrodes at the Fz, Cz, Pz, and Oz positions (referring to frontal, central, parietal, and occipital regions at the midline, respectively) was used to record signals. Analyses of EEG-power spectra signals were carried out at the following frequency bands: • Delta-1-4 Hz (typically associated with sleep), Theta-4-7.5 Hz (associated with waking/falling asleep, some association with cognition), Alpha-8-12 Hz (associated with passive wakefulness, and with cognitive processing), Beta-12-25 Hz (associated with alertness and concentration) and Gamma-25-45 Hz (associated with higher cognitive function).
as §2, §1

[9] = healthy elderly, 15 mg oral once daily
[10] = safety population, 15 mg oral once daily up to 15 days
[11] = healthy elderly, 15 mg oral once daily, Day 15

concentration at 5 h ([1]; human, CSF, 15 mg oral once daily, 5-hrs post last dose): 77 nM | CSF concentration relative to threshold expected for pharmacological activity in the brain ([1]; threshold determined from preclinical models): 2-3 times | mean plasma and CSF concentrations vs threshold for pharmacological activity in the brain [4]: exceed the threshold
SMILES: Fc1ccccc1Cc1nc(-c2nc(C(F)(F)F)n[nH]2)cn2ccnc12 [Compound I]
alpha power compared to placebo ([2]; NCT03856827, day 14, across all dosage levels tested): Improvements in alpha power | ERP P300 amplitude ([2]; healthy subjects aged 18 to 62, NCT03856827): increase in amplitude with increasing dose level | CSF concentration of Alpha 2 macroglobulin (A2M) vs placebo ([3]; nominal p 0.013 (FIG. 9)): potentially important reductions in the concentrations | CSF concentration of complement C3 (C3) vs placebo ([3]; nominal p 0.039 (FIG. 9)): potentially important reductions in the concentrations | activation of brain regions by fMRI-BOLD (rodents): activation of subcortical brain structures relevant to cognition | cerebral blood flow (CBF) (rodents): increased cerebral blood flow | magnitude of improvement as age related change in N200 latency ([5]; at older ages, after two weeks of treatment): 10 year | ERP N200 latency ([5]; healthy elderly, 15 mg oral once daily, day 14, compared with placebo, p=0.02): significantly shorter | ERP N200 amplitude [5, 9]: larger N200 negative amplitudes were observed with increasing age | ERP N200 amplitude ([5]; healthy elderly, 15 mg oral once daily, listed as IW-6463): increased the amplitude | N200 latency response vs age [5]: smaller latency increases with increasing age; also recorded: greater in subjects older than 70 years old | N200 latency response vs age ([5]; listed as IW-6463): greater in subjects older than 70 years old | LS mean difference in change from baseline for saccadic peak velocity vs placebo (95% CI) ([6]; day 15): 28.53 (−2.76, 59.83) | LS mean difference in change from baseline for saccadic latency (reaction time) vs placebo ([6]; day 15, p=0.0216): -6.58 ms | headache (most commonly reported CNS event) rate ([7]; IW-6463 vs placebo): rates were similar between treatments | AE reports of syncope, hypotension or other hemodynamic events [7, 10]: no AE reports of syncope, hypotension or other events potentially related to changes in hemodynamics | blood pressure measurements below the normal range [7, 10]: no blood pressure measurements reported below the normal range | effects on memory and learning (pre-clinical models): displaying effects on memory and learning | effects on neuroinflammation (pre-clinical models): positive effects on neuroinflammation | neuroprotective properties (pre-clinical models): displayed neuroprotective properties | qEEG gamma power in combination with donepezil (rats; 10 mg/kg oral plus 1 mg/kg donepezil, 1-2 hours post-dose): further increased | qEEG gamma oscillations / gamma power compared to vehicle dosing (rats; oral suspension): increased gamma oscillations | qEEG gamma power (rats; orally at 10 mg/kg): increased gamma power | mean alpha band power relative to placebo ([8]; Day 15 prior to last dose and 2, 3, 6 hours after last dose (FIG. 1)): increased mean alpha band power relative to placebo at all post-baseline timepoints | EEG (anterior) gamma power, change from baseline [8, 9]: 1 dB | EEG (anterior) gamma power, increase from baseline [8, 9]: 45% | EEG (anterior) alpha power, change from baseline [8, 11]: 0.6 dB | EEG (anterior) alpha power, increase from baseline [8, 11]: 17.5% | EEG (anterior) alpha power, treatment effect vs placebo [8, 11]: 13% | EEG (posterior) alpha power, change relative to baseline [8, 11]: 0.5 dB | EEG (posterior) alpha power, increase from baseline [8, 11]: 13.7% | EEG (posterior) alpha power, treatment effect vs placebo [8, 11]: 17%
